Test results: article PMC3424241, “The Octadecaneuropeptide ODN Protects Astrocytes against Hydrogen Peroxide-Induced Apoptosis via a PKA/MAPK-Dependent Mechanism” (PLoS ONE, 2012)

How the values were obtained:
cultured rat astrocytes = experiment: Cell survival after H2O2, FDA fluorescence; type: cell-based; conditions: for effect of inhibitor on dbcAMP-promoted astroglial cell survival: H89 20 µM or U0126 20 µM, 1 h 300 µM H2O2 with dbcAMP 1 mM; for effect of pathway inhibitor on the protective action of ODN: H89 20 µM, U0126 20 µM, U73122 10 µM, chelerythrine 0.1 µM; for protective effect of receptor ligand on H2O2-induced cell death: 30 min pre-incubation with ligand (OP 0.1 nM, [Ala15]ODN 0.1 nM, clonazepam 10 nM), then 1 h 300 µM H2O2
Description: Secondary cultures of rat cortical astrocytes were prepared as previously described [64]with minor modifications. Briefly, cerebral hemispheres from newborn Wistar rats were collected in DMEM/F12 (2∶1; v/v) culture medium supplemented with 2 mM L-glutamine, 1‰ insulin, 5 mM HEPES, 0.4% glucose and 1% of the antibiotic-antimycotic solution. The tissues were dissociated mechanically with a syringe equipped with a 1-mm gauge needle, and filtered through a 100-µm sieve (Falcon, Franklin Lakes, NJ, USA). […] When cultures were confluent, astrocytes were isolated by shaking overnight the flasks on an orbital agitator. Adhesive cells were detached by trypsination and preplated for 5 min to discard contaminating microglial cells. Then, the non-adhering astrocytes were harvested and plated on 35-mm hydrophilic surface Petri dishes at a density of 3×10^5 cells/ml. […] The cells were incubated at 37°C in a humid atmosphere (5% CO2). […] All experiments were performed on 5- to 7-day-old secondary cultures.
Cultured cells were incubated at 37°C with fresh serum-free culture medium in the absence or presence of H2O2 and/or ODN for 1 h. Cells were then incubated for 10 min at 37°C with 0.3 µg/ml calcein-AM (producing green fluorescence in living cells), rinsed twice with culture medium without probe and examined on an inverted microscope (Leica, Heidelberg, Germany) equipped with a double pass filter.
For quantification of surviving astrocytes, cells were incubated for 8 min with 15 µg/ml FDA-AM, rinsed twice with phosphate-buffered saline (PBS) and lysed with a Tris/HCl solution containing 1% sodium dodecyl sulfate (SDS). Fluorescence was measured with excitation at 485 nm and emission at 538 nm, using a microplate reader (Bio-Tek FLx 800).

ERK1 and ERK2 = experiment: ERK phosphorylation, Western blot; type: cell-based, rat; conditions: ODN 0.1 nM, 1 h; flumazenil 1 µM, cyclo1-8[DLeu5]OP 1 µM, H89 20 µM, U0126 20 µM
Description: (§1) Secondary cultures of rat cortical astrocytes were prepared as previously described [64]with minor modifications. Briefly, cerebral hemispheres from newborn Wistar rats were collected in DMEM/F12 (2∶1; v/v) culture medium supplemented with 2 mM L-glutamine, 1‰ insulin, 5 mM HEPES, 0.4% glucose and 1% of the antibiotic-antimycotic solution. The tissues were dissociated mechanically with a syringe equipped with a 1-mm gauge needle, and filtered through a 100-µm sieve (Falcon, Franklin Lakes, NJ, USA). Dissociated cells were resuspended in culture medium supplemented with 10% FBS, plated in 175-cm^2 flasks (Greiner Bio-one GmbH, Frickenhausen, Germany) and incubated at 37°C in a 5% CO2/[…] atmosphere. When cultures were confluent, astrocytes were isolated by shaking overnight the flasks on an orbital agitator. Adhesive cells were detached by trypsination and preplated for 5 min to discard contaminating microglial cells. Then, the non-adhering astrocytes were harvested and plated on 35-mm hydrophilic surface Petri dishes at a density of 3×10^5 cells/ml. For measurement of cell survival, caspase-3 activity and mitochondrial activity, cells were plated in hydrophilic surface 24-well plates at a density of 8×10^4 cells/ml. The cells were incubated at 37°C in a humid atmosphere (5% CO2). After 5 days (DIV5), more than 99% of the cells were labeled with antibodies against glial fibrillary acidic protein [65]. All experiments were performed on 5- to 7-day-old secondary cultures.
Cultured cells were incubated at 37°C for 1 h with fresh serum-free medium in the absence or presence of test substances. Total proteins were extracted with lysis buffer containing 1% Triton X-100, 50 mM Tris/HCl and 10 mM EDTA. After centrifugation (20,000 g, 4°C, 15 min), the proteins contained in the supernatant were precipitated by addition of ice-cold 10% TCA. The extract was centrifuged (15,000 g, 4°C, 15 min) and washed three times with alcohol/ether. The pellet was denatured (100°C, 5 min) in 50 mM Tris/HCl (pH 7.5) containing 20% glycerol, 0.7 M 2-mercaptoethanol, 0.004% bromophenol blue and 3% SDS, and then migrated on a 10% SDS-polyacrylamide gel electrophoresis (PAGE). After separation, proteins were electrically transferred onto nitrocellulose membrane (Amersham, Les Ulis, France). […] Signal was quantified using an image analysis system (Biocom, Les Ulis, France).

caspase-3 = experiment: Caspase-3 activity, fluorometric Z-DEVD-Rhodamine 110; type: cell-based, rat; conditions: for effect of inhibitor on the inhibitory action of ODN on H2O2-induced caspase-3 activity: H89 20 µM, U0126 20 µM, U73122 1 µM, chelerythrine 1 µM, 30 min pre-incubation, 1 h 300 µM H2O2 with ODN 0.1 nM
Description: as §1
At the end of the incubation with test substances, cultured astrocytes were washed twice with PBS at 37°C, resuspended in DMEM (100 µl) and treated with fluorometric caspase-3 Apo-1 assay system. In brief, 100 µl of the cell suspension was incubated with 100 µl of kit buffer and caspase substrate in 96-well plates. Caspase-3 activity was calculated from the slope of the fluorescence measured every 15 min for 3 h with excitation at 485 nm and emission at 530 nm, and expressed as a percentage of the control.

[1] = tested on: cAMP formation in astroglial cells (adenylyl cyclase); experiment: cAMP production, radioimmunoassay; type: cell-based, rat; conditions: antagonist 1 µM, 30 min pre-incubation with 0.1 mM IBMX; ODN 0.1 nM, 10 min
Description: Secondary cultures of rat cortical astrocytes were prepared as previously described [64]with minor modifications. Briefly, cerebral hemispheres from newborn Wistar rats were collected in DMEM/F12 (2∶1; v/v) culture medium supplemented with 2 mM L-glutamine, 1‰ insulin, 5 mM HEPES, 0.4% glucose and 1% of the antibiotic-antimycotic solution. The tissues were dissociated mechanically with a syringe equipped with a 1-mm gauge needle, and filtered through a 100-µm sieve (Falcon, Franklin Lakes, NJ, USA). Dissociated cells were resuspended in culture medium supplemented with 10% FBS, plated in 175-cm^2 flasks (Greiner Bio-one GmbH, Frickenhausen, Germany) and incubated at 37°C in a 5% CO2/[…] atmosphere. When cultures were confluent, astrocytes were isolated by shaking overnight the flasks on an orbital agitator. Adhesive cells were detached by trypsination and preplated for 5 min to discard contaminating microglial cells. Then, the non-adhering astrocytes were harvested and plated on 35-mm hydrophilic surface Petri dishes at a density of 3×10^5 cells/ml. […]
Cultured cells were pre-incubated for 30 min in serum-free medium containing 0.1 mM IBMX to inhibit phosphodiesterases, and then incubated in the same solution, in the presence or absence of test substances. […] The concentration of cAMP was measured by using a cAMP RIA kit. […]

[2] = tested on: glutathione (GSH) in cultured astrocytes; experiment: Intracellular glutathione content, mBCl fluorescence; type: cell-based, rat; conditions: antagonist 1 µM, 30 min pre-incubation; ODN 0.1 nM, 1 h; flumazenil statement covers control and H2O2-treated cells
Description: as §1
Reduced GSH was measured by using the thiol-reactive probe mBCl. At the end of the treatment period, the culture medium was removed and the cells were incubated with the mBCl probe (40 µM) at 37°C for 30 min and then washed twice with PBS. Fluorescence intensity was measured with excitation at 360 nm and emission at 485 nm, using a microplate reader (Bio-Tek FLx 800).

[3] = 30 min pre-incubation, then 1 h 300 µM H2O2 with ODN 0.1 nM, FDA fluorescence

Row | Compound | effect of pathway inhibitor on the protective action of ODN (cultured rat astrocytes; [3]) | effect of antagonist or inhibitor on ODN-induced ERK phosphorylation (ERK1 and ERK2) | effect of inhibitor on the inhibitory action of ODN on H2O2-induced caspase-3 activity (caspase-3) | also measured
1 | O=S(=O)(NCCNC/C=C/c1ccc(Br)cc1)c1cccc2cnccc12 [H89] | totally abrogated the protective action of ODN | suppressed | abrogated the inhibitory effect of ODN on H2O2-induced caspase-3 activity | effect of inhibitor on dbcAMP-promoted astroglial cell survival (cultured rat astrocytes; 30 min pre-incubation): suppressed
2 | N#CC(=C(/N)Sc1ccccc1N)/C(C#N)=C(/N)Sc1ccccc1N [U0126] | totally abrogated the protective action of ODN | suppressed | abrogated the inhibitory effect of ODN on H2O2-induced caspase-3 activity | effect of inhibitor on dbcAMP-promoted astroglial cell survival (cultured rat astrocytes; 30 min pre-incubation): suppressed
3 | COc1ccc2c(c1)CC[C@@H]1[C@@H]2CC[C@]2(C)[C@@H](NCCCCCCN3C(=O)C=CC3=O)CC[C@@H]12 [U73122] | did not modify the protective effect of ODN | – | neither U73122 nor chelerythrine could suppress the effect of ODN | –
4 | COc1ccc2c(c[n+](C)c3c4cc5c(cc4ccc23)OCO5)c1OC [chelerythrine] | did not modify the protective effect of ODN | – | neither U73122 nor chelerythrine could suppress the effect of ODN | –
5 | O=C1CN=C(c2ccccc2Cl)c2cc([N+](=O)[O-])ccc2N1 [clonazepam] | – | – | – | protective effect of receptor ligand on H2O2-induced cell death (cultured rat astrocytes; FDA fluorescence): unable to block the effect of H2O2
6 | CCCC(=O)Nc1ncnc2c1ncn2[C@@H]1O[C@@H]2COP(=O)(O)O[C@H]2[C@H]1OC(=O)CCC [dbcAMP, N^6,2′-O-dibutyryladenosine 3′,5′ cyclic monophosphate] | – | – | – | protective effect of cAMP analog on H2O2-evoked cell death (cultured rat astrocytes; dbcAMP 1 mM, 1 h 300 µM H2O2, FDA fluorescence): mimicked the protective effect of ODN on H2O2-evoked cell death; effect of cAMP analog on H2O2-evoked caspase-3 activation (caspase-3; dbcAMP 1 mM, 1 h 300 µM H2O2): mimicked the effect ODN on H2O2-evoked caspase-3 activation
7 | CCOC(=O)c1ncn2c1CN(C)C(=O)c1cc(F)ccc1-2 [flumazenil] | – | did not affect ODN-induced ERK phosphorylation | – | effect of receptor antagonist on the glioprotective action of ODN (cultured rat astrocytes; antagonist 1 µM, 30 min pre-incubation, then 1 h 300 µM H2O2 with ODN 0.1 nM, FDA fluorescence): did not affect the protective effect of ODN; effect of antagonist on ODN-stimulated cAMP formation [1]: did not affect the increase of cAMP induced by ODN; effect of antagonist on ODN-stimulated GSH formation [2]: did not impair the effect of ODN on glutathione production neither in control nor in H2O2-treated cells
8 | [Ala^15]ODN: inactive ODN analog (QATVGDVNTDRPGLADLK; Octadecaneuropeptide; UniProt P11030 34-51, looked up, variant L15A) | – | – | – | protective effect of receptor ligand on H2O2-induced cell death (cultured rat astrocytes; FDA fluorescence): devoid of protective activity
